# From patent US12486259B2, “FXR agonist having pyrazine structure, and preparation method and use” (JIANGSU TASLY DIYI PHARMACEUTICAL CO., LTD., priority 2020, dated 2025)
# Tested on: C57/BL6 mice fed MCD diet
# Assay: Pharmacodynamic test in methionine-choline deficient diet (MCD) model of non-alcoholic fatty liver disease
# Type: in vivo
# Method: Animal strain: C57/BL6, Animal Grade: SPF Grade, Gender: male, Animal Age: 8 weeks old, Animals Received Date: 2018 Sep. 28, Animal Source: Shanghai Lingchang Biotechnology Co. Ltd., Animal Certificate No: SCXK (Shanghai)2013-0018 2013001836799, Mouse feeding Environment: temperature 20-26° C., humidity 40-70%, 12 hour day and night cycle.
# 5% Solutol HS15/Normal saline: after Solutol HS15 (polyethylene glycol 15 hydroxystearate solubilizer) is dissolved in a water bath at 37° C., 5 ml of it is dissolved in 100 ml of normal saline, thoroughly stirred for later use.
# Obeticholic acid/5% Solutol HS15/Normal saline: 0.15 ml Solutol HS15 is added to accurately weighed 12 mg obeticholic acid to fully dissolve it, and 2.85 ml normal saline is added, vigorously mixed and dissolved by the ultrasound. • TM-01 Group/5% Solutol HS15/Normal saline: 2.5 ml of 6 mg/ml TM-01 suspension is taken, 2.5 ml of 5% Solutol HS15/normal saline is added, and the mixture is mixed well. • TM-02 Group/5% Solutol HS15/Normal saline: 2.5 ml of 6 mg/ml TM-02 suspension is taken, 2.5 ml of 5% Solutol HS15/normal saline is added, and the mixture is mixed well. • TM-06 Group/5% Solutol HS15/Normal saline: 2.5 ml of 6 mg/ml TM-06 suspension is taken, 2.5 ml of 5% Solutol HS15/Normal saline is added, and the mixture is mixed well. • TM-09 Group/5% Solutol HS15/Normal saline: 2.5 ml of 6 mg/ml TM-09 suspension is taken, 2.5 ml of 5% Solutol HS15/Normal saline is added, and the mixture is mixed well.
# Menstruum and test compounds are administered by gavage at a dose volume of 10 ml/kg;
# After reaching the animal house, 70 8-week-old C57/BL6 mice are fed adaptively and randomly divided into 7 groups according to body weight after the average body weight reaches 23 g. They are given the model feed. The first group receives the control diet MCS and the remaining groups receive the MCD diet, while each group of mice receives compound treatment as follows: • Group 1. Control Group: MCS, menstruum, administered once daily by gavage; • Group 2. Model Group: MCD, menstruum, administered once daily by gavage; • Group 3. Obeticholic acid group: MCD, 40 mpk obeticholic acid, administered once daily by gavage; • Group 4. TM-01 Group: MCD, 30 mpk TM-01, administered once daily by gavage; • Group 5. TM-02 Group: MCD, 30 mpk TM-02, administered once daily by gavage; • Group 6. TM-06 Group: MCD, 30 mpk TM-06, administered once daily by gavage; • Group 7. TM-09 Group: MCD, 30 mpk TM-09, administered once daily by gavage; 2.4 Experimental Methods
# Body weight and food intake are measured weekly during the experiment. Twenty-one days after administration, tail tips are bled with microcapillaries for AST, ALT measurements. Twenty-eight days after administration, mice are terminated, hearts are bled, and liver tissues are collected and weighed. One portion is snap frozen with liquid nitrogen for subsequent analysis and the other portion are fixed for pathological analysis.
# Mouse blood is centrifuged at 5000 rpm for 10 minutes and supernatants are collected for determination of TG (triglycerides), TC (total cholesterol), HDL (high density lipoprotein), LDL (low density lipoprotein), AST (aspartate aminotransferase) and ALT (alanine aminotransferase).
# AST and ALT after administration for three and four weeks are determined according to the instructions of kit. The blood lipid index 4 weeks after administration is sent to Adicon Medical Laboratory Co. Ltd. for detection.
# The livers are removed from −80° C., homogenized in PBS (phosphate buffered saline), extracted with chloroform methanol organic phase, and subjected to TC and TG assays using the kit, normalized for protein content.
# Four weeks after administration, the mice are anesthetized. The heart is bled, the liver is isolated and weighed. The right lobe is snapfrozen with liquid nitrogen and stored at −80° C. for liver lipid analysis. The left lobe is isolated and fixed in 10% formalin for subsequent HE and Sirius Red staining. […]
# [1] = MCD mice, after 4 weeks, TM 30 mpk, obeticholic acid 40 mpk
# [2] = MCD mice, blood, 3 weeks, TM 30 mpk, obeticholic acid 40 mpk, gavage
# [3] = MCD mice, blood, 4 weeks, TM 30 mpk, obeticholic acid 40 mpk, gavage
# [4] = MCD mice, blood, after 4 weeks, TM 30 mpk, obeticholic acid 40 mpk
# [5] = MCD mice, liver, after 4 weeks, TM 30 mpk, obeticholic acid 40 mpk
# [6] = after 4 weeks of MCD and compounds treatment
smiles,measurement,setting,value
"Cc1cc(C(=O)O)cc(C2CC(O)(c3cnc(OCc4c(-c5c(Cl)cccc5Cl)noc4C(C)C)cn3)C2)c1 (stereo not drawn) [TM-09, 3-(3-(5-((3-(2,6-dichlorophenyl)-5-isopropylisoxazol-4-yl)methoxy)pyrazine-2-yl)-3-hydroxycyclobutyl)-5-methyl benzoic acid]","Weight, 0 week","MCD mice, 0 week, TM compounds 30 mpk, obeticholic acid 40 mpk, once daily by gavage",23.60 ± 0.29 g
same,"Food intake, 1 week","MCD mice, 1 week, TM 30 mpk, obeticholic acid 40 mpk, gavage",2.364 ± 0.186 g
same,"Weight, 1 week","MCD mice, 1 week, TM compounds 30 mpk, obeticholic acid 40 mpk, once daily by gavage",21.26 ± 0.34 g
same,"Food intake, 2 weeks","MCD mice, 2 weeks, TM 30 mpk, obeticholic acid 40 mpk, gavage",2.707 ± 0.187 g
same,"Weight, 2 weeks","MCD mice, 2 weeks, TM compounds 30 mpk, obeticholic acid 40 mpk, once daily by gavage",19.29 ± 0.39 g
same,"Food intake, 3 weeks","MCD mice, 3 weeks, TM 30 mpk, obeticholic acid 40 mpk, gavage",2.284 ± 0.342 g
same,"Weight, 3 weeks","MCD mice, 3 weeks, TM compounds 30 mpk, obeticholic acid 40 mpk, once daily by gavage",17.18 ± 0.31 g
same,"Food intake, 4 weeks","MCD mice, 4 weeks, TM 30 mpk, obeticholic acid 40 mpk, gavage",2.109 ± 0.661 g
same,"Weight, 4 week","MCD mice, 4 weeks, TM compounds 30 mpk, obeticholic acid 40 mpk, once daily by gavage",15.90 ± 0.31 g
same,liver weight,[1],0.74 ± 0.04 g
same,liver/body weight,[1],4.98 ± 0.25 %
same,"ALT, 3 weeks",[2],40.27 ± 21.48 U/L
same,"AST, 3 weeks",[2],45.04 ± 12.08 U/L
same,"ALT, 4 weeks",[3],14.30 ± 4.19 U/L
same,"AST, 4 weeks",[3],38.40 ± 4.19 U/L
same,HDL (blood lipid),[4],0.56 ± 0.02 mmol/L
same,LDL (blood lipid),[4],2.52 ± 0.07 mmol/L
same,TC (blood lipid),[4],0.86 ± 0.09 mmol/L
same,TG (blood lipid),[4],0.54 ± 0.04 mmol/L
same,HE score,"MCD mice, liver pathology score (Table 12 criteria), 4 weeks, TM 30 mpk, obeticholic acid 40 mpk",1.1
same,Sirius red staining area,"MCD mice, liver, 4 weeks, TM 30 mpk, obeticholic acid 40 mpk",0.392 ± 0.057 %
same,liver TC,[5],37.7 ± 3.65 µmol/g protein
same,liver TG,[5],232 ± 18.4 µmol/g protein
same,blood lipid levels (in words),[6],different reductions in blood lipids
same,liver triglyceride and cholesterol content (in words),[6],significant lowering effect on liver triglyceride and cholesterol levels
same,liver weight and liver/body weight (in words),[6],significantly increases mouse liver weight and liver/body weight
same,ALT and AST compared to the model group (in words),three weeks after MCD and compounds treatment,significantly reduced
